Reference: patent publication US20110172200A1, “USE OF INHIBITOR OF BETA-LACTAMASES AND ITS COMBINATION WITH BETA-LACTAM ANTIBIOTICS” (priority 2008, published 2011)
pIC50: −log10 of the molar value. Where “and” joins values, the source holds several entries; their conditions need not be identical. Equal entries are not always repeated. Where two headings read alike, the source gives them in different places. Values belong to the molecule of their own block, whether it stands above or below them.

How the values were obtained:
[1] = system: E. caerogenes ATCC 29751 (class II); assay: Broth microdilution susceptibility assay (MIC), strain S4; type: cell-based; settings: duplicate, CAMHB, 35° C., 24 h
Protocol: (§1) Representative inhibitor of beta-lactamases of formula (I) was evaluated against the bacterial strains producing serine-based class A beta-lactamases including CTX-M, TEM-type, SHV-type extended spectrum beta-lactamases (ESBL) and class C betalactamases (AmpC) as noted in Table 2.
(§2) Bacterial suspensions with a turbidity equivalent to that of a 0.5 McFarland standard were prepared by suspending a tiny portion of one colony from blood agar plates in 2 mL of sterile saline. Suspensions were further diluted with cation adjusted Mueller Hinton Broth (CAMHB) to obtain a final inoculum of 5×10^5 CFU/mL.
(§3) The in vitro activities of the antibiotics were determined by the broth microdilution method as recommended by CLSI guidelines.
(§4) MIC experiments were performed in duplicate in 96-well microtiter plates using CAMHB. Serial twofold dilutions of each antibiotic either alone or in combination with constant concentration ratio of LK-176 (2:1) and (10:1) were prepared in CAMHB. The bacterial suspension with final inoculum […] was transferred to the test medium containing the antibacterial substances. In each well of microtiter plate 50 μL of bacterial inoculum and 50 μL of antibiotic dilutions were combined. Each plate included 4 wells with no bacterial inoculum (negative control) and 4 wells with no test compound and no antibiotic (positive control). The plates were incubated at 35° C. for 24 h. Purity check and colony counts on each inoculum suspension was performed to ensure that the final inoculum concentration routinely obtained closely approximates 5×10^5 CFU/mL.

[2] = system: E. cloacae B274 (AmpC); assay: Broth microdilution susceptibility assay (MIC), strain S1; type: cell-based; settings: CAMHB, 35° C., 24 h; for MIC: Enterobacter cloacae
Protocol: as §1, §2, §3, §4

[3] = system: E. cloacae B275 (AmpC); assay: Broth microdilution susceptibility assay (MIC), strain S2; type: cell-based; settings: duplicate, CAMHB, 35° C., 24 h
Protocol: as §1, §2, §3, §4

[4] = system: E. cloacae 4013; assay: Broth microdilution susceptibility assay (MIC), strain S3; type: cell-based; settings: duplicate, CAMHB, 35° C.; for MIC S3: 24 h; for MIC: Enterobacter cloacae, 4013, 24 h
Protocol: as §1, §2, §3, §4

[5] = system: E. faecalis ATCC 29212; assay: Broth microdilution susceptibility assay (MIC), strain S5; type: cell-based; settings: duplicate, CAMHB, 35° C.; for MIC S5: 24 h; for MIC: Enterococcus faecalis, ATCC29212, 24 h
Protocol: as §1, §2, §3, §4

[6] = system: AmpC; settings: cited from earlier work
[7] = single and repeated doses, i.v. and oral, healthy subjects; cited from earlier work
[8] = system: K. pneumoniae ATCC 700603 (SHV-18); assay: Broth microdilution susceptibility assay (MIC), strain S7; type: cell-based; settings: CAMHB, 35° C.; for MIC S7: 24 h; for MIC: Klebsiella pneumoniae, ATCC700603, 24 h
Protocol: as §1, §2, §3, §4

[9] = system: K. pneumoniae DSA 1461; assay: Broth microdilution susceptibility assay (MIC), strain S6; type: cell-based; settings: Table 2 lower part, duplicate, CAMHB, 35° C., 24 h
Protocol: as §1, §2, §3, §4

[10] = system: C. freundii B271 (SHV-5); assay: Broth microdilution susceptibility assay (MIC), strain S8; type: cell-based; settings: CAMHB, 35° C., 24 h; for MIC: Citrobacter freundii
Protocol: as §1, §2, §3, §4

[11] = biological target: class C beta-lactamase P99 (AmpC) (Enterobacter cloacae, UniProt P05364); assay: IC50 determination with nitrocefin as reporter substrate, P99; type: biochemical
Chain of class C beta-lactamase P99 (AmpC) (P05364 21-381): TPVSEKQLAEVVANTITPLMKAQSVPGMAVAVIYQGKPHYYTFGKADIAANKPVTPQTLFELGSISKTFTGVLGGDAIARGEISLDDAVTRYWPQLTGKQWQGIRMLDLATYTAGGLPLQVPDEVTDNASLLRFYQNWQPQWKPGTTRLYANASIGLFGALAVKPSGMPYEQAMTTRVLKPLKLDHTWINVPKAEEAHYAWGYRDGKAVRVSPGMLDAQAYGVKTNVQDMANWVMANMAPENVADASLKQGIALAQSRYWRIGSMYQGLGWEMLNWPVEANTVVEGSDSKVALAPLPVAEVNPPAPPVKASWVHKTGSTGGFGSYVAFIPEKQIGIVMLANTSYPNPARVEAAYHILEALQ
Protocol: (§5) The IC50 value represents the concentration of inhibitor required to effect a 50% loss of activity of free enzyme. A standard test for the production of beta-lactamase involves use of the chromogenic cephalosporin, nitrocefin.
(§6) Homogeneously purified class A beta-lactamases TEM-1 and SHV-1 from E. coli and class C enzyme P99 from Enterobacter cloaca were employed in the assay.
(§7) All the enzymes and compounds were dissolved in 50 mM phosphate buffer pH 7.0 and all further dilutions were done with the same buffer solution. Enzyme and compound dilutions were pre-incubated for 30 min at 37° C. and in a final volume of 500 μl. Than 10 μl of 5 mM nitrocefin (reporter substrate) was added to the solution and the absorbance at 482 nm was measured during 2 to 5 minutes. The initial rate was calculated for all the different solutions. The […] values were determined as the inhibitor concentration that gave an initial hydrolysis rate of nitrocefin equal to 50% of the hydrolysis rate of nitrocefin in absence of inhibitor.
(§8) Representative compounds of formula (I) were evaluated as inhibitors of beta-lactamases of TEM-1 and SHV-1 (class A, penicillinase) from E. coli and P-99 (class C, cephalosporinase) from Enterobacter cloacae, by relative IC50 analysis using a procedure similar to that described above.

[12] = system: C. freundii B318 (CTX-M); assay: Broth microdilution susceptibility assay (MIC), strain S9; type: cell-based
Protocol: as §1, §2, §3, §4

[13] = biological target: class A beta-lactamase SHV-1 (Escherichia coli, UniProt P0AD63); assay: IC50 determination with nitrocefin as reporter substrate, SHV-1; type: biochemical, E. coli
Chain of class A beta-lactamase SHV-1 (P0AD63 22-286): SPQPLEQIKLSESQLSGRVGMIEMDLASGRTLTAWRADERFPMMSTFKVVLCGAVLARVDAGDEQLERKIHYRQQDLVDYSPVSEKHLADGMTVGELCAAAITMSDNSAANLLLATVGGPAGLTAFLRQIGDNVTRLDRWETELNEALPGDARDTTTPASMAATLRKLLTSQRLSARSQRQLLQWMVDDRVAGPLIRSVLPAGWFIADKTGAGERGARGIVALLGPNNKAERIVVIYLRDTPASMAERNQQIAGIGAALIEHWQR
Protocol: as §5, §6, §7, §8

[14] = biological target: class A beta-lactamase TEM-1 (Escherichia coli, UniProt P62593); assay: IC50 determination with nitrocefin as reporter substrate, TEM-1; type: biochemical, E. coli; settings: 30 min pre-incubation at 37° C., phosphate buffer pH 7.0, nitrocefin
Chain of class A beta-lactamase TEM-1 (P62593 24-286 limits assumed): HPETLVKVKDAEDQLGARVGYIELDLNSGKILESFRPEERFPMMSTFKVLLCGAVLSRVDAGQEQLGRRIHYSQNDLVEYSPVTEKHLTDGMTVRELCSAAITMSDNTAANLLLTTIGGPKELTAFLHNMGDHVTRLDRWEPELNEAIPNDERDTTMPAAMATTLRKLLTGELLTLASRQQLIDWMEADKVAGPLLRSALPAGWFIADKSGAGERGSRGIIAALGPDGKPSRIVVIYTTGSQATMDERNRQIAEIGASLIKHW
Protocol: as §5, §6, §7, §8

[15] = system: strains S1-S9; assay: Broth microdilution susceptibility assay (MIC), all strains; type: cell-based; settings: strains deemed as resistant to LK-176 alone
Protocol: as §1, §2, §3
as §4, with “The plates were incubated at 35° C. for 24 h. Purity check and colony counts on each inoculum suspension was performed to ensure that the final inoculum concentration routinely obtained closely approximates 5×10^5 CFU/mL.” left out

[16] = Table 2 upper part, duplicate (two lines per substance)
[17] = Table 2 lower part, duplicate, CAMHB, 35° C., 24 h

Structure (SMILES): CO/N=C(\C(=O)N[C@@H]1C(=O)N2C(C(=O)O)=C(COC(C)=O)CS[C@H]12)c1csc(N)n1 [Cefotaxime (OTA), cefotaxime]
- MIC S4 ([1]; Table 2 upper part): 8 µg/mL
- MIC S1 [2, 16]: 128 µg/mL
- MIC S2 ([3]; Table 2 upper part): 128 µg/mL
- MIC S3 ([4]; Table 2 upper part): 64 µg/mL
- MIC S5 ([5]; Table 2 upper part): 16 µg/mL

Structure (SMILES): CO[C@H]1CCC[C@H]2C1=C(C(=O)O)N1C(=O)[C@H]([C@@H](C)O)[C@@H]21 [sanfetrinem]
- kcat values of AmpC [6]: 0.00033 s⁻¹
- Safety and tolerability [7]: good tolerability

Structure (SMILES): CO/N=C(\C(=O)N[C@@H]1C(=O)N2C(C(=O)O)=C(CSc3nc(=O)c(O)nn3C)CS[C@H]12)c1csc(N)n1 [Ceftriaxone (TRI), ceftriaxone]
- MIC S4 ([1]; Table 2 lower part): 8 µg/mL
- MIC S7 ([8]; Table 2 lower part, duplicate): 8 µg/mL
- MIC S1 ([2]; Table 2 lower part, duplicate): 128 µg/mL
- MIC S6 [9]: >128 µg/mL and 128 µg/mL
- MIC S8 ([10]; Table 2 lower part, duplicate): 32 µg/mL
- MIC S2 ([3]; Table 2 lower part): 64 µg/mL
- MIC S3 ([4]; Table 2 lower part): 32 µg/mL
- MIC S5 ([5]; Table 2 lower part): >128 µg/mL

Structure (SMILES): CO[C@H]1CCC[C@H]2C1=C(C(=O)O)N1C(=O)C(C(C)O)[C@@H]21 (stereo partly drawn) [LK-176, (4S,8S,9R)-4-methoxy-10-(1-Hydroxyethyl)-11-oxo-1-azatricyclo-[7.2.0.0 (3,8)]undec-2-ene-2-carboxylic acid]
- MIC ([1]; Table 2 lower part): 16 µg/mL
- MIC ([1]; Table 2 upper part): 32 µg/mL
- pIC50 [11]: 9.82
- MIC S9 [12, 17]: 32 µg/mL
- MIC ([8]; Table 2 lower part, duplicate): > 128 µg/mL
- MIC ([8]; Table 2 upper part, column 6, duplicate): 16 µg/mL
- MIC S7 ([8]; Table 2 lower part, duplicate): 128 µg/mL
- MIC ([2]; Table 2 lower part, duplicate): 32 µg/mL
- MIC [2, 16]: 32 µg/mL
- MIC S1 ([2]; Table 2 lower part, duplicate): 16 µg/mL
- MIC ([9]; Klebsiella pneumoniae, DSA1461): 16 µg/mL
- MIC ([10]; Table 2 lower part, duplicate): 64 µg/mL
- MIC ([10]; Table 2 upper part, column 7, duplicate): 128 µg/mL
- MIC ([3]; Enterobacter cloacae, Table 2 lower part): 64 µg/mL
- pIC50 [13]: 6.70
- MIC ([4]; Table 2 lower part): 64 µg/mL
- MIC ([4]; Table 2 upper part): 64 µg/mL
- MIC S3 ([4]; Table 2 lower part): 32 µg/mL
- pIC50 [14]: 7.82
- MIC values of LK-176 alone, all strains S1-S9 [15]: above 16 mg/L
- MIC ([5]; Table 2 lower part): 64 µg/mL
- MIC ([5]; Table 2 upper part): 32 µg/mL

Structure (SMILES): CO/N=C(\C(=O)N[C@@H]1C(=O)N2C(C(=O)[O-])=C(C[N+]3(C)CCCC3)CS[C@H]12)c1csc(N)n1 [Cefepime (EPI), cefepime]
- MIC S5 ([5]; Table 2 upper part): 32 µg/mL and 16 µg/mL

Structure (SMILES): C=CC1=C(C(=O)O)N2C(=O)[C@@H](NC(=O)/C(=N\OCC(=O)O)c3csc(N)n3)[C@H]2SC1 [cefixime]
- kcat values of AmpC [6]: 10 s⁻¹

Continued, values first:

- MIC S4 ([1]; Table 2 upper part): 16 µg/mL
- MIC S1 [2, 16]: >128 µg/mL
- MIC S2 ([3]; Table 2 upper part): >128 µg/mL
- MIC S3 ([4]; Table 2 upper part): 128 µg/mL
- MIC S5 ([5]; Table 2 upper part): 16 µg/mL
Structure (SMILES): CC(C)(O/N=C(\C(=O)N[C@@H]1C(=O)N2C(C(=O)[O-])=C(C[n+]3ccccc3)CS[C@H]12)c1csc(N)n1)C(=O)O [Ceftazidime (TAZ), ceftazidime]

- MIC S4 ([1]; Table 2 lower part): 128 µg/mL
- MIC S9 [12]: 128 µg/mL
- MIC S7 ([8]; Table 2 lower part, duplicate): 64 µg/mL and 32 µg/mL
- MIC S1 ([2]; Table 2 lower part, duplicate): >128 µg/mL
- MIC S6 [9]: >128 µg/mL
- MIC S8 ([10]; Table 2 lower part, duplicate): 128 µg/mL
- MIC S2 ([3]; Table 2 lower part): >128 µg/mL
- MIC S3 ([4]; Table 2 lower part): >128 µg/mL
- MIC S5 ([5]; Table 2 lower part): 64 µg/mL and 32 µg/mL
Structure (SMILES): CO/N=C(\C(=O)N[C@@H]1C(=O)N2C(C(=O)O)=C(COC(N)=O)CS[C@H]12)c1ccco1 [Cefuroxime (URO), cefuroxime]

- MIC S4 ([1]; Table 2 lower part): 32 µg/mL
- MIC S9 [12, 17]: 128 µg/mL
- MIC S7 ([8]; Table 2 lower part, duplicate): >128 µg/mL
- MIC S1 ([2]; Table 2 lower part, duplicate): >128 µg/mL
- MIC S6 [9]: >128 µg/mL
- MIC S8 ([10]; Table 2 lower part, duplicate): >128 µg/mL
- MIC S2 ([3]; Table 2 lower part): >128 µg/mL
- MIC S3 ([4]; Table 2 lower part): >128 µg/mL
- MIC S5 ([5]; Table 2 lower part): 16 µg/mL
Structure (SMILES): CCN1CCN(C(=O)N[C@@H](C(=O)N[C@@H]2C(=O)N3[C@@H]2SC(C)(C)[C@@H]3C(=O)O)c2ccccc2)C(=O)C1=O [Piperacillin (PIP), piperacillin]
